Measurements: patent US20220395464A1, “ORALLY ADMINISTERED SOLID DOSAGE FORM DRUG” (ASCENTAWITS PHARMACEUTICALS, LTD., priority 2019, published 2022)
Converted amounts (≈) assume the structure as drawn. “Also recorded” adds a separate entry of the source. Like-named read-outs stand apart in the source and are kept apart here.

Assay: Solubility study of AST-3424 (shaking at 25° C., HPLC content)
Format: physicochemical
Details: for solubility / solubility at 1 h / solubility at 4 h / solubility at 8 h / solubility at 24 h / solubility at 48 h: thermodynamic from solid; for solubility at 1 h / solubility at 4 h / solubility at 8 h / solubility at 24 h / solubility at 48 h: read-out: Content (solubility test)
Experimental: An appropriate amount of AST-3424 (hereinafter called active pharmaceutical ingredients or API) was taken and placed in a suitable container containing 40 ml of the mentioned-above solutions (20 ml for organic solvents) respectively until excess oil droplets of AST-3424 existed in the solution.
Samples were put in a constant temperature shaking incubator at 25° C. and shaken at a proper speed (100 rpm). The samples were taken and checked pH values at each appointed time as specified in Table 1. Then, the samples were centrifuged (1000 rpm, 10 minutes), and added the corresponding solution or organic solvent (to dissolve the API for solubility study) to dilute to an appropriate concentration for HPLC analysis, so as to obtain solubility data. It should be noted that the dilution ratio after test was accurately recorded.
In the solubility study, for a determination of sample contents, 1 ml of culture medium were measured respectively, and then centrifuged at 1000 rpm for 10 minutes. Subnatant after centrifugation were collected respectively for HPLC analysis. In the solution stability study, the samples may be provided directly for HPLC analysis.
The contents were determined by a HPLC method: AST-3424 was used as an external standard for quantification.
According to the solution stability results, AST-3424 is very unstable in the acetate buffer of pH 4.5. Therefore, the phosphate buffer of pH 6.8, the phosphate buffer of pH 7.4, the alkaline borate buffer of pH 10.0, and the purified water were selected for the solubility study. An appropriate amount of AST-3424 was weighed and placed in 40 ml of medium (8 ml ethanol/propylene glycol (50:50, v/v) was used), until excess flocci was present in the solution.

[1] = alkaline borate buffer, 25 °C, pH 10, aqueous buffer, pH 10.0 (Alkaline borate buffer)
[2] = ethanol/propylene glycol (50:50, v/v), 25 °C, organic solvent or mixture, Ethanol/Propylene glycol (50:50, v/v)
[3] = phosphate buffer of pH 6.8, 25 °C, pH 6.8, aqueous buffer, pH 6.8 (Phosphate buffer)
[4] = phosphate buffer of pH 7.4, 25 °C, pH 7.4, aqueous buffer, pH 7.4 Phosphate buffer
[5] = phosphate buffer, 25 °C, pH 7.4, aqueous buffer, pH 7.4 Phosphate buffer
[6] = purified water, 25 °C, water, Purified water

## C[C@H](OP(=O)(N1CC1)N1CC1)c1ccc([N+](=O)[O-])c(Oc2cccc(C(=O)N(C)C)c2)c1 [AST-3424, (S)-1-(3-(3-N,N-Dimethylaminocarbonyl)phenoxy-4-nitrophenyl)-1-ethyl-N,N′-bis(ethylene) phosphoramidate]
Purified water
  Solubility, descriptive terms: Sparingly soluble
[1]
  solubility: ~23 mg/mL (≈ 50 mM)
  solubility at 1 h: 23.5 mg/mL (≈ 51 mM)
  solubility at 4 h: 23.6 mg/mL (≈ 51.2 mM)
  solubility at 8 h: 23.5 mg/mL (≈ 51 mM)
  solubility at 24 h: 23.5 mg/mL (≈ 51 mM)
  solubility at 48 h: 23.7 mg/mL (≈ 51.4 mM)
ethanol/propylene glycol (50:50, v/v)
  Solubility, descriptive terms: easily soluble; also recorded: Freely soluble (FS)
[2]
  solubility at 1 h: 271 mg/mL (≈ 589 mM)
  solubility at 4 h: 302 mg/mL (≈ 657 mM)
  solubility at 8 h: 301 mg/mL (≈ 654 mM)
  solubility at 24 h: 299 mg/mL (≈ 649 mM)
  solubility at 48 h: 274 mg/mL (≈ 595 mM)
ethanol/propylene glycol (50:50, v/v), 25 °C, organic solvent or mixture, ethanol/propylene glycol (50:50, v/v)
  solubility: > 270 mg/mL
pH 6.8 (Phosphate buffer)
  Solubility, descriptive terms: Sparingly soluble
pH 7.4 (Phosphate buffer)
  Solubility, descriptive terms: Sparingly soluble
pH 10.0 (Alkaline borate buffer)
  Solubility, descriptive terms: Sparingly soluble
[3]
  solubility at 1 h: 23 mg/mL (≈ 50 mM)
  solubility at 4 h: 22.9 mg/mL (≈ 49.8 mM)
  solubility at 8 h: 23 mg/mL (≈ 50 mM)
  solubility at 24 h: 22.6 mg/mL (≈ 49.1 mM)
  solubility at 48 h: 22.1 mg/mL (≈ 47.9 mM)
[4]
  solubility at 1 h: 23.7 mg/mL (≈ 51.4 mM)
  solubility at 4 h: 23.5 mg/mL (≈ 51 mM)
  solubility at 48 h: 23.4 mg/mL (≈ 50.8 mM)
Phosphate buffer, 25 °C, pH 6.8, aqueous buffer, pH 6.8 (Phosphate buffer)
  solubility: ~23 mg/mL (≈ 50 mM)
Phosphate buffer, 25 °C, pH 7.4, aqueous buffer, pH 7.4 (Phosphate buffer)
  solubility: ~23 mg/mL (≈ 50 mM)
[5]
  solubility at 8 h: 23.6 mg/mL (≈ 51.2 mM)
  solubility at 24 h: 23.7 mg/mL (≈ 51.4 mM)
Purified water, 25 °C, water
  solubility: ~20 mg/mL (≈ 43.4 mM)
[6]
  solubility at 1 h: 20.9 mg/mL (≈ 45.4 mM)
  solubility at 4 h: 20.1 mg/mL (≈ 43.7 mM)
  solubility at 8 h: 19.7 mg/mL (≈ 42.7 mM)
  solubility at 24 h: 18.8 mg/mL (≈ 40.9 mM)
  solubility at 48 h: 17.8 mg/mL (≈ 38.6 mM)
